Test results as given in US7737155B2, “Nitrogen-containing heterocyclic compounds and methods of use thereof” (Schering Corporation, priority 2005, dated 2010).

Biological target: recombinant human nicotinic acid receptor (NAR) (Homo sapiens, UniProt Q8TDS4)
Assay: Nicotinic Acid Receptor Assay: inhibition of forskolin-stimulated cAMP accumulation in CHO cells (MesoScale Discovery cAMP kit)
Type: cell-based
Conditions: CHO cells expressing recombinant human NAR; forskolin-stimulated cAMP; read-out: NA EC50 camp
In short: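 Compounds were diluted in PBS containing 6 μM forskolin and incubated with cells for 30 min at room temperature. cAMP was quantified by the MesoScale kit against an on-plate standard curve.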

Chain of recombinant human nicotinic acid receptor (NAR) (Q8TDS4 whole entry): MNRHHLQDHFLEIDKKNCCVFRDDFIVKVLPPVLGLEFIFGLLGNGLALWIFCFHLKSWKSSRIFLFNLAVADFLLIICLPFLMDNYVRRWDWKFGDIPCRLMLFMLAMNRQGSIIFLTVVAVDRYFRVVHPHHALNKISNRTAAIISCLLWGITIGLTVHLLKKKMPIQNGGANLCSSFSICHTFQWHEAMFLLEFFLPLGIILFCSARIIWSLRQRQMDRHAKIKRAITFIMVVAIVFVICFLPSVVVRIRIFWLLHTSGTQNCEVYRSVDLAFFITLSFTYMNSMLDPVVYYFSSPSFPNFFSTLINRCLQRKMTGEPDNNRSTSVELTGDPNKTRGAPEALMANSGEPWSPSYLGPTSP

| SMILES | EC50 [nM] |
| --- | --- |
| CCOc1nc2oc(=O)cc(CCC3CCCC3)c2c(=O)[nH]1 [Compound 687] | 100 to 1000 |
| CCc1cc(=O)oc2nc(OCC#CCCOC)[nH]c(=O)c12 [Compound 664] | 100 to 1000 |
| O=c1cc(CCC2CC2)c2c(=O)[nH]c(=O)n(C3CCC3)c2o1 [Compound 274] | 100 to 1000 |
| CCC(C)CCc1cc(=O)oc2[nH]c(=O)[nH]c(=O)c12 (stereo not drawn) [Compound 247] | 0.001 to 100 |
| CCc1cc(=O)oc2nc(OCc3cccc(OC)n3)[nH]c(=O)c12 [Compound 544] | 100 to 1000 |
| CCc1cc(=O)oc2nc(OCc3ccccc3-n3cncn3)[nH]c(=O)c12 [Compound 571] | 100 to 1000 |
| CCc1cc(=O)oc2nc(OCc3cccc(-c4ccc(F)cc4)c3)[nH]c(=O)c12 [Compound 566] | > 1000 |
| CCc1cc(=O)oc2nc(OCc3ccc(-c4cccc(OC)c4)cc3F)[nH]c(=O)c12 [Compound 572] | 100 to 1000 |
| CC(C)(C)CCCc1cc(=O)oc2[nH]c(=O)n(C3CCC3)c(=O)c12 [Compound 284] | 100 to 1000 |
| CC(C)CCc1cc(=O)oc2[nH]c(=O)n(CC3CC3)c(=O)c12 [Compound 260] | > 1000 |
| CCn1c(=O)[nH]c(=O)c2c(CCC3CC3)cc(=O)oc21 [Compound 277] | > 1000 |
| CCc1cc(=O)oc2nc(OCc3cccc(-c4cccnc4)c3)[nH]c(=O)c12 [Compound 563] | 100 to 1000 |
| CCc1cc(=O)oc2nc(OCc3ccc4ccccc4n3)[nH]c(=O)c12 [Compound 527] | 100 to 1000 |
| CCC(CC)Cc1cc(=O)oc2[nH]c(=O)[nH]c(=O)c12 [Compound 267] | > 1000 |
| CCc1cc(=O)oc2nc(OCc3cc(C)nn3C(C)(C)C)[nH]c(=O)c12 [Compound 673] | 100 to 1000 |
| CC(C)(C)CCc1cc(=O)oc2[nH]c(=O)[nH]c(=O)c12 [Compound 263] | > 1000 |
| CCc1cc(=O)oc2nc(OCCOc3ccccc3F)[nH]c(=O)c12 [Compound 614] | 100 to 1000 |
| O=C(OCc1ccccc1)N1CCC(CCc2cc(=O)oc3[nH]c(=O)[nH]c(=O)c23)CC1 [Compound 234] | > 1000 |
| CC(C)CCc1cc(=O)oc2c1c(=O)[nH]c(=O)n2CC1CC1 [Compound 259] | > 1000 |
| COCC#CCOc1nc2oc(=O)cc(Cc3cccc(F)c3)c2c(=O)[nH]1 [Compound 684] | 0.001 to 100 |
| COc1ccc(-c2cc(CCCc3cc(=O)oc4[nH]c(=O)[nH]c(=O)c34)on2)cc1 [Compound 261] | 100 to 1000 |
| CCc1c(C#Cc2ccccc2)c(=O)oc2[nH]c(=O)[nH]c(=O)c12 [Compound 219] | > 1000 |
| CCc1noc(C)c1COc1nc2oc(=O)cc(CCC(C)C)c2c(=O)[nH]1 [Compound 688] | 100 to 1000 |
| CCCCCc1cc(=O)oc2nc(ONC(=O)OCC)[nH]c(=O)c12 [Compound 695] | 0.001 to 100 |
| CCc1cc(=O)oc2nc(OCCSc3ccc(Cl)cc3)[nH]c(=O)c12 [Compound 587] | > 1000 |

Same assay, conditions: NA EC50 camp, inhibition of forskolin-stimulated cAMP accumulation, CHO cells expressing recombinant human NAR

| SMILES | EC50 [nM] |
| --- | --- |
| CCCCc1cc(=O)oc2nc(OCC#CC3CC3)[nH]c(=O)c12 [Compound 735] | 94 |

Same assay, conditions: inhibition of forskolin-stimulated cAMP accumulation, CHO cells expressing recombinant human NAR; read-out: NA EC50 camp

| SMILES | EC50 [nM] |
| --- | --- |
| N#Cc1c(CCCC2CC2)c2c(=O)[nH]c(=O)[nH]c2oc1=O [Compound 759] | 2330 |
| O=c1[nH]c(=O)c2c(Cc3ccsc3)cc(=O)oc2[nH]1 [Compound 135] | 4.8 |
| CCCCCCc1cc(=O)oc2[nH]c(=O)nc(OCF)c12 [Compound 833] | 511 |
| CCCCc1cc(=O)oc2nc(O[C@H]3C[C@H](COCc4ccccc4)C3)[nH]c(=O)c12 [Compound 791] | 50 |
| CCc1cc(=O)oc2[nH]c(=O)n(C3CCC3)c(=O)c12 [Compound 35] | 9 |
| CCC#CCOc1nc2oc(=O)cc(CCCC(C)C)c2c(=O)[nH]1 [Compound 715] | 671 |
| CCCCc1cc(=O)oc2[nH]c(=O)nc(OCC(F)(F)F)c12 [Compound 829] | 882 |
| CCCc1cc(=O)oc2[nH]c(=O)nc(OCCF)c12 [Compound 825] | 616 |
| CCCCc1cc(=O)oc2c1c(=O)[nH]c(=O)n2OCc1ccccc1 [Compound 798] | > 10000 |
| O=c1nc(OCF)c2c(CCCC3CC3)cc(=O)oc2[nH]1 [Compound 789] | 88 |
